Test results: paper PMC7470124, “Efficient synthesis, biological evaluation, and docking study of isatin based derivatives as caspase inhibitors” (Journal of Enzyme Inhibition and Medicinal Chemistry, 2020)
Entries after “also recorded” stand apart in the source; their conditions may differ.

Assays:
[1] = target: caspase-3 and −7; assay: Caspase-3 and -7 inhibition, acetyl-DEVD-AMC fluorogenic substrate assay (text does not say which caspase); type: biochemical; conditions: for Selectivity Index (SI): IC50 caspase-7/IC50 caspase-3, greater than 1.5 = selective inhibitor of caspase-3; for inhibitory activity against caspase-3 and −7 (in words): compared to Ac-DEVD-CHO; for inhibition percentage: at 20 μg/ml, caspase not given
Protocol: (§1) The inhibitory activities of newly synthesised 2–(2,3-dioxoindolin-1-yl)-N-substituted phenyl acetamide, 1-(prop-2-yn-1-yl)indoline-2,3-dione and two series of compounds containing 1-(pyrrolidinyl)sulphonyl and 2-(phenoxymethyl)pyrrolidin-1-yl)sulphonyl substitution at C^5 position of isatin core (B, C, Table 1) against caspase-3 and −7 were evaluated by using the acetyl-DEVD-AMC fluorogenic substrate assay. The results are expressed as inhibition percentage and IC50 values in Table 1. We used Ac-DEVD-CHO as the positive control.
(§2) The activity assay of caspase-3 was performed in a system of 50 µL containing 150 mM NaCl, 1 mM EDTA, 2 mM DTT, 50 mM HEPES pH 7.4, 10 µM Ac-DEVD-AMC (Bachem Bioscience, Philadelphia, PA, USA) and 2 nM caspase-3 in the 1 µL DMSO. Caspase-3 was incubated with synthesised compounds in 384-well plates for 10 min. […] The enzymatic activity of the caspase-3 was measured based on production of a fluorogenic substrate, 7-amino-4-methyl coumarin, which was monitored for 10 min and detected using an EnVision (PerkinElmer, Wellesley, MA, USA) at λex = 360 nm and λem= 460 nm. The initial rate of hydrolysis was determined using the early linear region of the enzymatic reaction curve.

[2] = target: T1, caspase-3 (Homo sapiens, UniProt P42574); assay: Caspase-3 inhibition assay (Ac-DEVD-AMC fluorogenic substrate); type: biochemical
T1 sequence (P42574 29-175 limits assumed): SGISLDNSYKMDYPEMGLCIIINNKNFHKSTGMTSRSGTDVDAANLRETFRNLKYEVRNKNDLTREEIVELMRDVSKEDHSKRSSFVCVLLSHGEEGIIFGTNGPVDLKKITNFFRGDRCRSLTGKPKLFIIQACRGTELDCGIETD
T1 sequence (P42574 176-277 limits assumed): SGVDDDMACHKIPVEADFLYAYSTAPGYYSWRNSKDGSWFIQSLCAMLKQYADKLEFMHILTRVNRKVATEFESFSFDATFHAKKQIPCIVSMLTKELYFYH
Protocol: as §1, §2

| melting point | Compound | other results |
| --- | --- | --- |
|  | Ac-DEVD-CHO [reference compound] | IC50 ([1]; caspase-3 and −7, Mean ± SD of three experiments, read-out: IC50 (positive control / studied compounds)): 0.016 ± 0.002 µM |
| 108 to 110 °C | O=C(CN1C(=O)C(=O)c2cc(S(=O)(=O)N3CCC[C@H]3COc3ccccc3)ccc21)Nc1ccc(F)cc1 [20c, (S)-2–(2,3-Dioxo-5-((2-(phenoxymethyl)pyrrolidin-1-yl)sulphonyl)indolin-1-yl)-N-(4-fluorophenyl)acetamide] | Selectivity Index (SI) [1]: greater than 1.5 |
| 179 to 181 °C | O=C(CN1C(=O)C(=O)c2ccccc21)Nc1ccc(Br)cc1 [11e, N-(4-Bromophenyl)-2–(2,3-dioxoindolin-1-yl)acetamide] |  |
| 204 to 206 °C | COc1ccc(NC(=O)CN2C(=O)C(=O)c3cc(S(=O)(=O)N4CCC[C@H]4COc4ccccc4)ccc32)cc1 [20k, (S)-2–(2,3-Dioxo-5-((2-(phenoxymethyl)pyrrolidin-1-yl)sulphonyl)indolin-1-yl)-N-(4-methoxyphenyl)acetamide] | inhibitory activity against caspase-3 and −7 (in words) [1]: lowest enzymatic inhibition |
| 195 to 197 °C | O=C(CN1C(=O)C(=O)c2cc(S(=O)(=O)N3CCCC3)ccc21)Nc1ccccc1[N+](=O)[O-] [19f, 2–(2,3-Dioxo-5-(pyrrolidin-1-ylsulfonyl)indolin-1-yl)-N-(2-nitrophenyl)acetamide] |  |
|  | O=C(CN1C(=O)C(=O)c2ccccc21)Nc1ccc(F)cc1 [11c, 2–(2,3-Dioxoindolin-1-yl)-N-(4-fluorophenyl)acetamide] | inhibition percentage [1]: 71% |
| 218 to 220 °C | O=C(CN1C(=O)C(=O)c2cc(S(=O)(=O)N3CCC[C@H]3COc3ccccc3)ccc21)Nc1ccc(OC(F)(F)F)cc1 [20i, (S)-2–(2,3-Dioxo-5-((2-(phenoxymethyl)pyrrolidin-1-yl)sulphonyl)indolin-1-yl)-N-(4-(trifluoromethoxy)phenyl)acetamide] |  |
| 209 to 211 °C | Cc1ccc(NC(=O)CN2C(=O)C(=O)c3cc(S(=O)(=O)N4CCC[C@H]4COc4ccccc4)ccc32)cc1 [20j, (S)-2–(2,3-Dioxo-5-((2-(phenoxymethyl)pyrrolidin-1-yl)sulphonyl)indolin-1-yl)-N-(p-tolyl)acetamide] | inhibitory activity against caspase-3 and −7 (in words) [1]: lowest enzymatic inhibition |
| 282 to 284 °C | C#CCN1C(=O)C(=O)c2cc(S(=O)(=O)N3CCC[C@H]3COc3ccccc3)ccc21 [20a, (S)-5-((2-(Phenoxymethyl)pyrrolidin-1-yl)sulphonyl)-1-(prop-2-yn-1-yl)indoline-2,3-dione] |  |
| 238 to 240 °C | O=C(CN1C(=O)C(=O)c2cc(S(=O)(=O)N3CCC[C@H]3COc3ccccc3)ccc21)Nc1ccccc1 [20b, (S)-2–(2,3-Dioxo-5-((2-(phenoxymethyl)pyrrolidin-1-yl)sulphonyl)indolin-1-yl)-N-phenylacetamide] |  |
| 203 to 205 °C | C#CCN1C(=O)C(=O)c2cc(S(=O)(=O)N3CCCC3)ccc21 [19a, 1-(Prop-2-yn-1-yl)-5-(pyrrolidin-1-ylsulfonyl)indoline-2,3-dione] | Selectivity Index (SI) [1]: greater than 1.5 |
| 201 to 203 °C | COc1ccc(NC(=O)CN2C(=O)C(=O)c3ccccc32)cc1 [11k, 2–(2,3-Dioxoindolin-1-yl)-N-(4-methoxyphenyl)acetamide] |  |
| 191 to 192 °C | O=C(CN1C(=O)C(=O)c2ccccc21)Nc1cccc([N+](=O)[O-])c1 [11g, 2–(2,3-Dioxoindolin-1-yl)-N-(3-nitrophenyl)acetamide] |  |
| 180 to 182 °C | O=C(CN1C(=O)C(=O)c2cc(S(=O)(=O)N3CCC[C@H]3COc3ccccc3)ccc21)Nc1ccccc1[N+](=O)[O-] [20f, (S)-2–(2,3-Dioxo-5-((2-(phenoxymethyl)pyrrolidin-1-yl)sulphonyl)indolin-1-yl)-N-(2-nitrophenyl)acetamide] | inhibitory activity against caspase-3 and −7 (in words) [1]: moderated caspase-3 and −7 inhibitors |
| 179 to 181 °C | O=C(CN1C(=O)C(=O)c2ccccc21)Nc1ccc([N+](=O)[O-])cc1 [11h, 2–(2,3-Dioxoindolin-1-yl)-N-(4-nitrophenyl)acetamide] |  |
| 209 to 211 °C | O=C(CN1C(=O)C(=O)c2cc(S(=O)(=O)N3CCC[C@H]3COc3ccccc3)ccc21)Nc1ccc(Cl)cc1 [20d, (S)-N-(4-chlorophenyl)-2–(2,3-dioxo-5-((2-(phenoxymethyl)pyrrolidin-1-yl)sulphonyl)indolin-1-yl)acetamide] | IC50 [2]: 2.33 µM; Selectivity Index (SI) [1]: greater than 1.5; inhibitory activity against caspase-3 and −7 (in words) [1]: most active compound; also recorded: moderate inhibitory activity |
| 158 to 160 °C | C#CCN1C(=O)C(=O)c2ccccc21 [11a, 1-(Prop-2-yn-1-yl)indoline-2,3-dione] |  |
| 196 to 198 °C | O=C(CN1C(=O)C(=O)c2cc(S(=O)(=O)N3CCC[C@H]3COc3ccccc3)ccc21)Nc1ccc(Br)cc1 [20e, (S)-N-(4-Bromophenyl)-2–(2,3-dioxo-5-((2-(phenoxymethyl)pyrrolidin-1-yl)sulphonyl)indolin-1-yl)acetamide] | Selectivity Index (SI) [1]: greater than 1.5 |
| 186 to 188 °C | O=C(CN1C(=O)C(=O)c2ccccc21)Nc1ccccc1[N+](=O)[O-] [11f, 2–(2,3-Dioxoindolin-1-yl)-N-(2-nitrophenyl)acetamide] | inhibition percentage [1]: 5% |
| 181 to 183 °C | O=C(CN1C(=O)C(=O)c2cc(S(=O)(=O)N3CCC[C@H]3COc3ccccc3)ccc21)Nc1cccc([N+](=O)[O-])c1 [20g, (S)-2–(2,3-Dioxo-5-((2-(phenoxymethyl)pyrrolidin-1-yl)sulphonyl)indolin-1-yl)-N-(3-nitrophenyl)acetamide] |  |
| 266 to 267 °C | O=C(CN1C(=O)C(=O)c2cc(S(=O)(=O)N3CCCC3)ccc21)Nc1ccc(OC(F)(F)F)cc1 [19i, 2–(2,3-Dioxo-5-(pyrrolidin-1-ylsulfonyl)indolin-1-yl)-N-(4-(trifluoromethoxy)phenyl)acetamide] |  |
| 191 to 193 °C | O=C(CN1C(=O)C(=O)c2cc(S(=O)(=O)N3CCCC3)ccc21)Nc1ccc(F)cc1 [19c, 2–(2,3-Dioxo-5-(pyrrolidin-1-ylsulfonyl)indolin-1-yl)-N-(4-fluorophenyl)acetamide] |  |
| 174 to 176 °C | O=C(CN1C(=O)C(=O)c2ccccc21)Nc1ccccc1 [11b, 2–(2,3-Dioxoindolin-1-yl)-N-phenylacetamide] |  |
| 177 to 179 °C | O=C(CN1C(=O)C(=O)c2ccccc21)Nc1ccc(Cl)cc1 [11d, N-(4-Chlorophenyl)-2–(2,3-dioxoindolin-1-yl)acetamide] |  |
| 196 to 198 °C | Cc1ccc(NC(=O)CN2C(=O)C(=O)c3ccccc32)cc1 [11j, 2–(2,3-Dioxoindolin-1-yl)-N-(p-tolyl)acetamide] |  |
| 162 to 164 °C | O=C(CN1C(=O)C(=O)c2cc(S(=O)(=O)N3CCC[C@H]3COc3ccccc3)ccc21)Nc1ccc([N+](=O)[O-])cc1 [20h, (S)-2–(2,3-Dioxo-5-((2-(phenoxymethyl)pyrrolidin-1-yl)sulphonyl)indolin-1-yl)-N-(4-nitrophenyl)acetamide] |  |
| 209 to 211 °C | O=C(CN1C(=O)C(=O)c2ccccc21)Nc1ccc(OC(F)(F)F)cc1 [11i, 2–(2,3-Dioxoindolin-1-yl)-N-(4-(trifluoromethoxy)phenyl)acetamide] |  |
